Data reported in article PMC9705869, “Chromophorylation of a Novel Cyanobacteriochrome GAF Domain from Spirulina and Its Response to Copper Ions” (Journal of Microbiology and Biotechnology, 2020).

Molecular target: T1, SPI1085g2 (Spirulina subsalsa, UniProt A0ABT3L563)
T1 construct: gene K4A83_08105; second GAF domain (GAF2) only, residues 216-369 of SPI1085; N-terminal polyhistidine tag kept (pETDuet); expressed in E. coli BL21(DE3) with ho1::pcyA or ho1::pebS
T1 sequence (A0ABT3L563 216-369): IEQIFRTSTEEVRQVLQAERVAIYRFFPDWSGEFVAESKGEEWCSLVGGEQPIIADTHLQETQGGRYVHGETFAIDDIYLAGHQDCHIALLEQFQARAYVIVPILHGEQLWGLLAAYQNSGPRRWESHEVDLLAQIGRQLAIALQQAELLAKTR
Assay: zinc-induced fluorescence on SDS-PAGE; absorbance and acid-urea denaturation
Assay type: binding
Conditions: covalent, KPB pH […]

| SMILES | zinc-induced fluorescence on SDS-PAGE; absorbance and acid-urea denaturation (chromophore assembled in E. coli co-expressing ho1 and pcyA) | zinc-induced fluorescence on SDS-PAGE; absorbance and acid-urea denaturation (chromophore assembled in E. coli co-expressing ho1 and pebS) |
| --- | --- | --- |
| C/C=C1/C(=C/c2[nH]c(/C=C3N=C(/C=C4\NC(=O)C(CC)=C4C)C(C)=C\3CCC(=O)O)c(CCC(=O)O)c2C)NC(=O)[C@@H]1C [PCB, phycocyanobilin] | SPI1085g2 can covalently bind PCB, as demonstrated by the zinc-dependent fluorescence observed by SDS-PAGE | – |
| C=CC1=C(C)[C@@H](Cc2[nH]c(/C=C3N=C(/C=C4\NC(=O)[C@H](C)\C4=C/C)C(C)=C\3CCC(=O)O)c(CCC(=O)O)c2C)NC1=O [PEB, phycoerythrobilin] | – | resulted in highly efficient binding of PEB to SPI1085g2 |
